The term solubility denotes the concentration that dissolves in the medium under given conditions.

Results on 2 compounds are retold here after patent US6432953B1, “Polymorphic form of a tachykinin receptor antagonist” (Merck & Co., Inc., priority 1997, dated 2002).

Data set [1] in a line: Solubility in methanol/water. The format is physicochemical. The conditions noted are these: for solubility: 2/1 (v/v) methanol/water, 0 °C, organic solvent or mixture, thermodynamic from solid. The protocol: The solubility of Form I in 2/1 (v/v) methanol/water at 0° C. was determined to be 0.9±0.1 mg/ml. The solubility of Form II in 2/1 (v/v) methanol/water at 0C was determined to be 1.3±0.2 mg/ml.

A further data set in a line: Thermal stability. Type of data set: physicochemical.
Data set [2] can be described thus: Vapor pressure by Knudsen effusion techniques. The settings on record: at elevated temperatures, Form I compared with Form II. The format is physicochemical. The source says: The vapor pressures of Form I and Form II at elevated temperatures were similar when examined with Knudsen effusion techniques.
The next data set concerns cisplatin-induced emesis. The experiment in a line: Ferret model of cisplatin-induced emesis. The format is in vivo. The conditions noted are these: model of Tattersall et al.
Another data set can be described thus: Hygroscopicity. Type of data set: physicochemical.

≈ marks a conversion by molar mass, not a printed value.

For `CC(OC1OCCN(Cc2n[nH]c(=O)[nH]2)[C@H]1c1ccc(F)cc1)c1cc(C(F)(F)F)cc(C(F)(F)F)c1` (stereo partly drawn) [Form II], the solubility in data set [1] (2/1 (v/v) methanol/water at 0C) amounted to 1300 ± 200 µg/mL (≈ 2430 µM).
Consider `CC(OC1OCCN(Cc2n[nH]c(=O)[nH]2)[C@H]1c1ccc(F)cc1)c1cc(C(F)(F)F)cc(C(F)(F)F)c1` (stereo partly drawn) [Form I], for which the thermal stability entry in “Thermal stability” (as a neat solid) and in “Thermal stability” (in hydroalcoholic solution) was “high degree of thermal stability” each time. Moreover, in data set [2], the vapor pressures result is “similar”. Besides, the “retching and vomiting induced by cisplatin” value in the data set with cisplatin-induced emesis is “attenuate the retching and vomiting induced by cisplatin”. Moreover, the “ratio of the solubilities” value in data set [1] is 1.4. The solubility in data set [1] (2/1 (v/v) methanol/water at 0° C.) came to 900 ± 100 µg/mL (≈ 1680 µM). In addition, the “more stable than Form II by” value in data set [1] (thermodynamic stability difference between polymorphs, from solubility ratio) is 0.2 kcal/mol. In the data set “Hygroscopicity”, the hygroscopicity result is on record as “non-hygroscopic”.
